Consider 98 compounds from ChEMBL document CHEMBL3507680, “University of Dundee, Gates Library screen for HepG2 cell viability”.

The data set in a line: Human HepG2 cell viability assay in 384 well format. The class given is toxicity, cell-based. The arrangement: dose 125 nL, time 70.5 hour; concentration not given beside the values. The following applies: HepG2 cells, read-out: Inhibition.
Turning to `Cc1n[nH]c(C)c1CCN(C)C(=O)C(c1cccnc1)N1CCOCC1` (stereo not drawn), the cytotoxicity at 70.5 h was -4.73%. The value for `OCCN1CCOC2(CCCN(c3ncc(F)cn3)C2)C1` (stereo not drawn) was -3.36%; that for `CCC(C(=O)NCc1cccnc1)N(c1cccc(C)c1)S(C)(=O)=O` (stereo not drawn) was 6.87%. Under `Cc1ccc(F)cc1NC(=O)NCC(C)N1CCOCC1` (stereo not drawn) stands 9.4%; under `Cc1cc(Cl)ccc1C(=O)N[C@H]1CN(S(C)(=O)=O)C[C@@H]1C1CC1`, -0.333%; under `CCN(C(=O)NCCc1ccccc1Cl)C(C)CS(C)(=O)=O` (stereo not drawn), 20.5%. With `CCCn1nc(C)c(CNC(=O)C2COc3c(cccc3OC)C2)c1C` (stereo not drawn), the cytotoxicity at 70.5 h was -10.5%. Consider `CCc1cc(=O)[nH]c2nnc(SCC(=O)OC)n12`, for which the cytotoxicity at 70.5 h turned out to be 9.93%. Under `OC1CCCOC12CCN(Cc1nnc(-c3cccnc3)o1)CC2` (stereo not drawn) stands 0.216%; under `CN1CCC(N2CCOC[C@H](OCC(=O)N(C)C)C2)CC1`, 0.483%; under `CN(Cc1cncnc1)[C@H]1CN(C(=O)c2ccco2)[C@@H]2CCCO[C@@H]21`, -10.9%. Under `Cc1nn(C)c(Cl)c1C(=O)NCc1cccnc1N1CCOCC1` stands -11.8%; under `Cc1cccc(CN2CC[C@@H]3[C@@H]2CCN3C(=O)c2cc(C)on2)n1`, -12.4%.

`O=C(CCn1ccccc1=O)Nc1ccc(I)cc1`: the cytotoxicity at 70.5 h was -10.5%. Under `CCc1nc(C2CCCN2C(=O)c2cc3c(s2)CCC3)no1` (stereo not drawn) stands -2.7%; under `CN1CCN(C(C)(C)CNC(=O)C2CCCN2S(C)(=O)=O)CC1` (stereo not drawn), -6.25%; under `CC(C)=CCCC1(C)CCC(=O)N(CCNc2nc(C)cc(=O)[nH]2)C1` (stereo not drawn), -10.3%. Under `COCC(=O)N1CCOC(c2ccc(N(C)C)cn2)C1` (stereo not drawn) stands 15.3%.

Take `Cc1cc(C)c(CNC(=O)N(C)Cc2sccc2C)c(=O)[nH]1`: the cytotoxicity at 70.5 h was -10.7%. Under `Cc1cn2cc(-c3nc4c([nH]3)CCCNC4=O)nc2s1` stands -10.3%. Under `O=C(Cc1cccs1)NCCNc1nccc(C(F)(F)F)n1` stands -3.67%; under `Cc1ccc(C(=O)N2C[C@@H]3CCN(C(C)C)C[C@@H]3C2)cn1`, 0.492%; under `COCCNC(=O)Cn1c(-c2ccco2)cc2cccnc21`, -8.41%. Under `c1ccc(COC[C@H]2CC[C@H]3[C@H](CCN3c3ncccn3)O2)nc1` stands -3.8%; under `Cc1cc(C)n(CC2(CNC(=O)C(c3ccccc3C)N(C)C)CC2)n1` (stereo not drawn), -10.8%; under `CC(NCC(N)=O)c1c(F)cccc1Cl` (stereo not drawn), -85.6%.

Consider `CN(CCO)C[C@@H]1CN(C2CCN(c3ccccc3Cl)CC2)C[C@@H]1CO`, for which the cytotoxicity at 70.5 h is -10.1%. The value for `O=C(CN1C(=O)CCC1=O)N1CCOCC1` was 48.6%. Regarding `Cc1c(NCc2cccnc2)cccc1C(=O)N1CCC(N(C)C)C1` (stereo not drawn), the cytotoxicity at 70.5 h was -5.39%. Under `CCc1ccc(C2CC(=O)Nc3cc(OC)c(NS(C)(=O)=O)cc32)o1` (stereo not drawn) stands -3.63%. Under `COc1cccc(Cl)c1C(C(=O)O)N(C)Cc1c(C)n[nH]c1C` (stereo not drawn) stands -12.4%; under `CC(=O)c1c(C)nn(S(=O)(=O)c2ccc(C)cc2)c1C`, 0.514%. The value for `CCCSc1ncccc1C(=O)NCc1ccc(N(C)C)cc1` was 18.5%. Turning to `O=C(c1cc(COc2ccc3c(c2)OCO3)[nH]n1)N1CCOCC1`, the cytotoxicity at 70.5 h came out at 9.33%.

With `CCc1n[nH]c(C2CN(C(=O)c3cc(C(N)=O)cs3)CCO2)n1` (stereo not drawn), the cytotoxicity at 70.5 h is -12.1%. With `COCCN1C(=O)CO[C@H]2CN(CCCc3ccccc3)C[C@H]21`, the cytotoxicity at 70.5 h was -1.96%. Under `O=C(CCCNc1ncccn1)N1CCCC(n2cncn2)C1` (stereo not drawn) stands -7.32%. Under `Cc1cccc(NC(=O)C2CSCN2C(=O)c2cnccn2)c1C` (stereo not drawn) stands -7.92%; under `O=C(NCCCn1ccnc1)NCC(c1ccco1)N1CCCCC1` (stereo not drawn), 4.46%. Turning to `CCc1c(C)sc2nc3n(CCN(C)C)nc(SC)n3c(=O)c12`, the cytotoxicity at 70.5 h was 20.8%.

Consider `CCC(C)NS(=O)(=O)Cc1cccc(NC(=O)c2cc[nH]c2C)c1` (stereo not drawn), for which the cytotoxicity at 70.5 h was -5.4%. As to `COc1ccc(N(C(=O)c2ccc(C)nc2)C(C)C)cc1F`, the cytotoxicity at 70.5 h came to 15.8%. The value for `CCCc1nc(CN(CC)C(=O)c2ccc(S(C)(=O)=O)cc2)no1` was -8.4%; that for `C[C@@H]1CN(Cc2cc3ccccc3n2C)CC[C@@]1(O)C1CC1` was -3.91%. The value for `COc1cccc(CN2CCCC2c2ccc[nH]2)c1` (stereo not drawn) was 0.927%.

Consider `O=C1CCCCN1Cc1cccc(NC(=O)N2CCSCC2)c1`, for which the cytotoxicity at 70.5 h was -6.83%. The value for `Cn1nccc1C(=O)N1CCCC2(CCN(c3ccsc3)C2=O)C1` (stereo not drawn) was 10.3%; that for `CC(=O)c1cc(CN2C[C@@H](CN3CCCC3)[C@@H](CO)C2)n(C)c1` was -5.11%. The value for `CC(C)(CN1CCC2(CCOCC2)CC1)N1CCOCC1` was 9.42%. As for `COCCN1CCC(NCc2ccc(Cl)cc2)C1` (stereo not drawn), the cytotoxicity at 70.5 h was -11.1%. The value for `CCSc1cc(C(=O)NCCC(=O)Nc2ccccn2)ccn1` was -3.16%. For the compound `CC(=O)c1cccc(NC(=O)Cn2cnc(-c3cccs3)cc2=O)c1`, the cytotoxicity at 70.5 h was -1.2%. Take `c1cncc(N2CC[C@@H]3CN(CC4CC4)C[C@@H]3C2)c1`: the cytotoxicity at 70.5 h was -26.1%. The value for `CCn1cc(S(=O)(=O)N2CCCC2c2ccc(C)o2)cn1` (stereo not drawn) was 2.79%; that for `Cc1nc(CN2C(=O)CCC23CCN(c2ncccc2C)CC3)cs1` was 33.3%. The value for `COc1ccc(CN(Cc2ccccn2)Cc2cncn2C)cc1` was -1.37%; that for `COc1ccccc1OCC(=O)NCC(O)(c1cccs1)C1CC1` (stereo not drawn) was -5.23%. Under `CC[C@@H](Cn1ncc2ccccc2c1=O)NC(=O)c1cnc(C)cn1` stands -6.57%; under `CC(C)c1nc(NS(=O)(=O)c2ccccc2Cl)no1`, 0.444%; under `Cc1ccc(CNC(=O)NCc2csc(C)n2)cn1`, -21.2%. For the compound `Cc1noc([C@@]23CCO[C@@H]2CCN(C(=O)c2cc(C)on2)C3)n1`, the cytotoxicity at 70.5 h was -3.23%.

Turning to `CC1CN(C)CCN1C(=O)c1ccn(-c2cccc(Cl)c2)n1` (stereo not drawn), the cytotoxicity at 70.5 h is -13.2%. The value for `OCC1(NCc2cccc(-n3cccn3)c2)CCOCC1` was -1.42%; that for `O=C(C1CC1)N1C[C@@H](F)[C@@H](OCc2nc3cc(F)ccc3[nH]2)C1` was -3.11%; that for `O=C(N[C@@H]1CCC[C@@H](n2ccnc2)[C@@H]1O)c1ccc2c(c1)CCCC2` was 30.9%. Take `CS(=O)(=O)c1cccc(OCC(=O)N2CCCC2c2ccccc2Cl)c1` (stereo not drawn): the cytotoxicity at 70.5 h was -2.69%. Under `O=C(c1cc(C2CCCCN2CCO)n[nH]1)N1CCOCC1` (stereo not drawn) stands -9.24%. Under `C[C@@H]1CN(Cc2ccccn2)C[C@]12CCN(Cc1cccnc1)C2=O` stands -13.1%; under `Cc1nc(CN2CCCC(c3nc(C)n4c(C)c(C)sc34)C2)co1` (stereo not drawn), 21%; under `CCOC1COC2(CCN(C(=O)c3cccc(C)n3)CC2)C1` (stereo not drawn), -0.53%.

As to `CC(C)Nc1cccc(CNC(=O)N2CCC(N3CC=CC3)C2)c1` (stereo not drawn), the cytotoxicity at 70.5 h is 30.6%.

As for `CSCCC(=O)N1CCC(Oc2cc(C)ccc2F)(C(=O)O)CC1`, the cytotoxicity at 70.5 h is -7.4%. Under `COc1ncnc2c1CCN(C(=O)NCc1cccnc1)CC2` stands 1.49%; under `O=C(Cn1cc(-n2cccc2)cn1)NCC1CCC1`, -10.7%. The value for `CN(C)S(=O)(=O)NCC1CCN(Cc2ccccc2F)CC1` was -9.47%; that for `OCCN1CCc2[nH]nc(C(c3ccccc3)c3ccccc3)c2C1` was -7.95%. Under `Cc1nccn1-c1cc(CNC(=O)CCNC(=O)C2CCCC2)ccn1` stands 2.73%; under `O=C(CCN1CCc2ccccc21)N1C[C@@H](O)[C@H](N2CCOCC2)C1`, -3%; under `CCN1CCCC1CNC(=O)c1cc(COc2cccc(F)c2)[nH]n1` (stereo not drawn), 0.339%.

As to `CCC[C@H]1CN(Cc2cc(C)no2)C[C@@H]1NC(=O)C1(COC)CCC1`, the cytotoxicity at 70.5 h was -10%. The value for `Cc1cnc(NCC(C)(C)N2CCCCC2)nc1` was -5.95%; that for `Cc1noc(C(C)C)c1C(=O)NCCCN1CCC(C)CC1` was -13%. `CC(=O)N1CCC(Oc2ccc(Cl)cc2C(=O)N2CCCO2)CC1`: the cytotoxicity at 70.5 h was -3.91%.

`c1ccc(Cc2nnc(CN3CCCC(Cn4cncn4)C3)o2)cc1` (stereo not drawn): the cytotoxicity at 70.5 h is -13.3%. As for `c1ccc(N2CCCC3(CCN(Cc4nccs4)C3)C2)nc1` (stereo not drawn), the cytotoxicity at 70.5 h worked out at 6.32%. Under `O=C(CC1CCCC1)N1CCC(c2noc(-c3ccccn3)n2)CC1` stands 6.76%; under `Cc1noc(NC(=O)c2ccc(C#N)cc2)n1`, -7.88%; under `Cc1cnn(CC(C)NCc2c(C)nn(Cc3ccccc3)c2C)c1` (stereo not drawn), -4.31%. Under `CCn1cc(C(=O)N2CCOC(c3nc(-c4cccs4)no3)C2)cn1` (stereo not drawn) stands -2.41%; under `Cc1cc(NC(=O)CCCn2ccnc2C)nc(C(C)C)n1`, 0.794%. Under `Cc1nc(CCN)cc(N2CCC(O)(c3ccccc3)C2)n1` (stereo not drawn) stands -4.16%; under `Cc1nc(CN(C)Cc2cnc(N3CCOCC3)s2)no1`, 22.9%; under `Cc1csc(N2CCCN(C(=O)c3cnns3)CC2)n1`, 31.6%. As to `CNC(=O)c1cn(C)c(-c2nc3cc(NC(C)=O)ccc3n2C)c1OC`, the cytotoxicity at 70.5 h is -17.5%. The value for `Cc1nccc(CN2CC[C@@]3(CCCN3Cc3ccccc3)[C@@H](O)C2)n1` was 1.99%. The value for `CCC1c2ccccc2CCN1C(=O)c1ccc(OC)nn1` (stereo not drawn) was -0.324%.

For the compound `Cc1oncc1C(=O)N1CC[C@H]2[C@H]1CCN2S(C)(=O)=O`, the cytotoxicity at 70.5 h is -1.36%.

As for `CCCNc1ncc(-c2cc(C3CC3)nc(N)c2C#N)cn1`, the cytotoxicity at 70.5 h was -12.1%.
